Laboratory results published in doi:10.1101/208439v1 (biorxiv, 2017).
Read-outs that look alike come from different tables or passages of the source. Each block holds one compound with its values, some of them ahead of it.

What was measured:
NSD2 SET domain = molecular target: T1, NSD2 SET domain (Homo sapiens, UniProt O96028); assay: biochemical; design: Surface plasmon resonance binding to NSD2 SET domain; details: binder
T1 construct: SET domain, residues 934-1241, N-terminal His tag, E. coli
T1 sequence (O96028 934-1241): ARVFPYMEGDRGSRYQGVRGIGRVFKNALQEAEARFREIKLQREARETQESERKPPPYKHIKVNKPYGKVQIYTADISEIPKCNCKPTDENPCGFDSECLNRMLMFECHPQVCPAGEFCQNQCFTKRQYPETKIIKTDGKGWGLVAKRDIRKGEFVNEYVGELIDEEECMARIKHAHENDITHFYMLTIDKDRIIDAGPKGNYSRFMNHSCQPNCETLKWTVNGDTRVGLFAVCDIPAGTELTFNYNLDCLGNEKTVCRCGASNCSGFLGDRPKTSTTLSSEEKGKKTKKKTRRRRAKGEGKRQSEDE
Description: To support an on-target mechanism of action for the five inhibitors, surface plasmon resonance (SPR) was used to determine whether each inhibitor interacts with the catalytic SET domain of NSD2. […] Chaetocin bound the SET domain with an apparent dissociation constant of 20 nM. Additionally, the data indicated super-stoichiometric binding, which might be due to a binding ratio higher than 1:1 that is consistent with chaetocin’s two disulfide moieties forming adducts with the NSD2 protein, or compound aggregation (data not shown) ([56]).

SMYD1 = molecular target: T2, SMYD1 (Homo sapiens, UniProt Q8NB12); assay: biochemical
T2 sequence (Q8NB12 1-490): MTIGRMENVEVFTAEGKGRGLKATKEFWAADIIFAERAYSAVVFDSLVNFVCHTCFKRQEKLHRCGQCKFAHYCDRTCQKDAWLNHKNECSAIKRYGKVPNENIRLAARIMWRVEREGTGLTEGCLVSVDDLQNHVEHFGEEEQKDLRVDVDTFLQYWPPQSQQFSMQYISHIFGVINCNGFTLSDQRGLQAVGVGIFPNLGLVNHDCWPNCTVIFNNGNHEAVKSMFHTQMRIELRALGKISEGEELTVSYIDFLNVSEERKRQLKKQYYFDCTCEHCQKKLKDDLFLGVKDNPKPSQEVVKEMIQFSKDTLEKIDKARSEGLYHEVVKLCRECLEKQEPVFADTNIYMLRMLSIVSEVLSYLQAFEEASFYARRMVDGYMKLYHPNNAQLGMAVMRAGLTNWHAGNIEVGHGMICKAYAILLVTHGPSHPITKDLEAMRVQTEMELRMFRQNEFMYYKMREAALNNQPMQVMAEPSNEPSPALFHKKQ

PRMT5 = PRMT5 (Homo sapiens, UniProt O14744); assay: biochemical
Sequence of PRMT5 (O14744 whole entry): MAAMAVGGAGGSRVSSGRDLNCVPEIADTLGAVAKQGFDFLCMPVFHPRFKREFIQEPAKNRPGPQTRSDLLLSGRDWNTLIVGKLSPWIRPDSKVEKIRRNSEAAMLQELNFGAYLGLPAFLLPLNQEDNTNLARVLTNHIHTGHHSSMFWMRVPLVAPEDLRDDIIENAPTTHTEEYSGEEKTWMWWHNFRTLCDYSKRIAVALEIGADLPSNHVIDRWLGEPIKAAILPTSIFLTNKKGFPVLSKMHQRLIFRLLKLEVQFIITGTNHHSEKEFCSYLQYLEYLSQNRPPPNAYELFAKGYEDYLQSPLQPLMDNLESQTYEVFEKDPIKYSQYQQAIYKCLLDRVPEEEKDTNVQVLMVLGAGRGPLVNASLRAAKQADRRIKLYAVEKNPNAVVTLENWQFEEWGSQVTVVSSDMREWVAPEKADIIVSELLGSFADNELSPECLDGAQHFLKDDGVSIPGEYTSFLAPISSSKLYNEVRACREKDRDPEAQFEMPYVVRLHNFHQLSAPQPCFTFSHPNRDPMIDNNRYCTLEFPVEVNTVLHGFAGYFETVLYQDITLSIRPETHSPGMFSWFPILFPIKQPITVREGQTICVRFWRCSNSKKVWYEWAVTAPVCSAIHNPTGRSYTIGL

SET7/9 = molecular target: T3, SET7/9 (Homo sapiens, UniProt Q8WTS6); assay: biochemical
T3 construct: gene SETD7
T3 sequence (Q8WTS6 1-366): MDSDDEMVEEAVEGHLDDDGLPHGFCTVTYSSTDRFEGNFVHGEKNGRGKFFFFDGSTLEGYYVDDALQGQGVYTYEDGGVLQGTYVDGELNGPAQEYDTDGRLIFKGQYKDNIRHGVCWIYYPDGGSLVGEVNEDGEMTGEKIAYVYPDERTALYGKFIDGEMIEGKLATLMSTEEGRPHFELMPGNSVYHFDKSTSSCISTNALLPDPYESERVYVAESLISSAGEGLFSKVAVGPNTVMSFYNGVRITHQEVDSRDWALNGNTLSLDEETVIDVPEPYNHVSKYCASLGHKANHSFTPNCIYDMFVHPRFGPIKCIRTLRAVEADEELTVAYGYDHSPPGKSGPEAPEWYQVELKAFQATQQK

DNMT3b/3L = DNMT3b/3L (Homo sapiens, UniProt Q9UBC3); assay: biochemical
PRMT1 = molecular target: T4, PRMT1 (Homo sapiens, UniProt Q99873); assay: HotSpot [3H]SAM filter-binding methyltransferase assay; assay type: biochemical
T4 construct: residues 2-371, N-terminal GST fusion, E. coli

PRMT8 = molecular target: T5, PRMT8 (Homo sapiens, UniProt Q9NR22); assay: as above; assay type: biochemical
T5 construct: residues 61-394, N- and C-terminal His tags, E. coli
T5 sequence (Q9NR22 61-394): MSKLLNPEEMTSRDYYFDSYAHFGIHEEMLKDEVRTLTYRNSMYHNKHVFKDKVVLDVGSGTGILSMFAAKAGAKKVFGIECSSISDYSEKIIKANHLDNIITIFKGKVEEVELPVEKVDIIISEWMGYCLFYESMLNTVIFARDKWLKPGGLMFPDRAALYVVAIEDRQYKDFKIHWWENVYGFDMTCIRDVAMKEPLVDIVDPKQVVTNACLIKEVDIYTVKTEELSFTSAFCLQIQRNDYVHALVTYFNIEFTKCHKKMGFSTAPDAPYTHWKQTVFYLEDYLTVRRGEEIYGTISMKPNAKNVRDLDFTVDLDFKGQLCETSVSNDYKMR

EZH1 Complex = molecular target: T6, EZH1 Complex (Homo sapiens, UniProt Q92800); assay: as above; assay type: biochemical
T6 construct: five-member complex, Flag-EED, other subunits His-tagged, insect cells; with Zinc finger protein AEBP2; Polycomb protein EED; Polycomb protein SUZ12
T6 sequence (Q92800 2-747): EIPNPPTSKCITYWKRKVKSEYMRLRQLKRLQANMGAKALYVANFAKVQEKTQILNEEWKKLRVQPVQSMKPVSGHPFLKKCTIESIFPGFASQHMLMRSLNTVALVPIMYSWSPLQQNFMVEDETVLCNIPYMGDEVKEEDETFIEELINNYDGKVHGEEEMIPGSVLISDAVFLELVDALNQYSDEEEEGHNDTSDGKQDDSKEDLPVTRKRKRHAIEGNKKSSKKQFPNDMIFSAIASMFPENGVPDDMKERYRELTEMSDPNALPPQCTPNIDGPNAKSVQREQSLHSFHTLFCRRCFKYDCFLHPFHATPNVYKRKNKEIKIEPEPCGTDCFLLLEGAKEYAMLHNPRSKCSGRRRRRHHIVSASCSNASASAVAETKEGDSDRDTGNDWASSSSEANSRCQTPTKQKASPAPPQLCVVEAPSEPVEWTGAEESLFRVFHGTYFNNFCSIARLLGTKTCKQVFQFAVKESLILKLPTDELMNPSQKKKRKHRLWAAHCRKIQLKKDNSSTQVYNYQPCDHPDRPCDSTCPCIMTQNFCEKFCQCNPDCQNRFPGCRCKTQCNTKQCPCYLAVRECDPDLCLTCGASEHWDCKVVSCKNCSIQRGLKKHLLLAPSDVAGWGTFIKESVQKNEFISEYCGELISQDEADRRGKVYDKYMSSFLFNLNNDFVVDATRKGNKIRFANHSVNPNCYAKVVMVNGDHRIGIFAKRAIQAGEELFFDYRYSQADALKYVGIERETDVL
T6 sequence (O75530 2-441 partner): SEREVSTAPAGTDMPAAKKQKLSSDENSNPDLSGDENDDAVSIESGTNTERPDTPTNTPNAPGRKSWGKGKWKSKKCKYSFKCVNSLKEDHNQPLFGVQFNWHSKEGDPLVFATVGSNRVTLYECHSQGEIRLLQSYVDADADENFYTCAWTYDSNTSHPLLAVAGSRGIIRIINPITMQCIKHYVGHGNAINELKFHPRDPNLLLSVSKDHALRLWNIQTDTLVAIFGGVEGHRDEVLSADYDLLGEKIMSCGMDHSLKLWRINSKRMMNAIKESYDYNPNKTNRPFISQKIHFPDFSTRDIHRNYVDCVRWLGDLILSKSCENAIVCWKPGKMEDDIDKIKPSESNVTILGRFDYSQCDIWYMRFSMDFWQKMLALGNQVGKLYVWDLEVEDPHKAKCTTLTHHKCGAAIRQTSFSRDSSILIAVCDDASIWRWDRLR
T6 sequence (Q15022 2-739 partner): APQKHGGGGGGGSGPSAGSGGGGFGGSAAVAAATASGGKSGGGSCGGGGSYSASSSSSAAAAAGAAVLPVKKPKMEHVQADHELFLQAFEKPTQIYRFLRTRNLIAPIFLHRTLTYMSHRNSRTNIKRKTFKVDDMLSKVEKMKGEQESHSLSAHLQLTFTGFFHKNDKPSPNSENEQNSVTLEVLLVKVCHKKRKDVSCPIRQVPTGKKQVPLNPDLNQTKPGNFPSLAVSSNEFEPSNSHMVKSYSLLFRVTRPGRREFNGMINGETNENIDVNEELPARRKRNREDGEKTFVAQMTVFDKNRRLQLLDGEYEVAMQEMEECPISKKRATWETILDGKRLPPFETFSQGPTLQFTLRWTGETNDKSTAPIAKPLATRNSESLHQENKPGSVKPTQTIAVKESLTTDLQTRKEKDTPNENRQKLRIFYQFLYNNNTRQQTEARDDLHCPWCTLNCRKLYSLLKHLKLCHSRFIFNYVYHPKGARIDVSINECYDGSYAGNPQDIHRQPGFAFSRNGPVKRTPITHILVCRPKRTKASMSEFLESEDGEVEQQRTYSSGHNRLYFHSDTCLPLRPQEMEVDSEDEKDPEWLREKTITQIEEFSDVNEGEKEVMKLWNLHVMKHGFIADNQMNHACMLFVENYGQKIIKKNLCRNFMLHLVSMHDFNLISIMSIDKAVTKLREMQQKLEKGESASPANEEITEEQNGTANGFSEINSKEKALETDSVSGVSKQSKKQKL
T6 sequence (Q09028 2-425 partner): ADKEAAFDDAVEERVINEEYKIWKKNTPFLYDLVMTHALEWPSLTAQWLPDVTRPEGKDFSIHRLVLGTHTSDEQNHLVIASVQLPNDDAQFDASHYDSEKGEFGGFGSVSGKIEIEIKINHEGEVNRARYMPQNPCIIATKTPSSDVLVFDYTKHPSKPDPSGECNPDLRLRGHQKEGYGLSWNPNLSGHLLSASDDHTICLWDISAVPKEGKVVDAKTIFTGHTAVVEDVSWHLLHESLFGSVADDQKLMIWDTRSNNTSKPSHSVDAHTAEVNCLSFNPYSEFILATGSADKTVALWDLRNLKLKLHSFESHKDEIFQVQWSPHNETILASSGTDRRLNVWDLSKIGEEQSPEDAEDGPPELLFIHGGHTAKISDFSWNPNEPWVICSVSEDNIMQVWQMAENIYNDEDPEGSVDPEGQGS
T6 sequence (Q6ZN18 2-517 partner): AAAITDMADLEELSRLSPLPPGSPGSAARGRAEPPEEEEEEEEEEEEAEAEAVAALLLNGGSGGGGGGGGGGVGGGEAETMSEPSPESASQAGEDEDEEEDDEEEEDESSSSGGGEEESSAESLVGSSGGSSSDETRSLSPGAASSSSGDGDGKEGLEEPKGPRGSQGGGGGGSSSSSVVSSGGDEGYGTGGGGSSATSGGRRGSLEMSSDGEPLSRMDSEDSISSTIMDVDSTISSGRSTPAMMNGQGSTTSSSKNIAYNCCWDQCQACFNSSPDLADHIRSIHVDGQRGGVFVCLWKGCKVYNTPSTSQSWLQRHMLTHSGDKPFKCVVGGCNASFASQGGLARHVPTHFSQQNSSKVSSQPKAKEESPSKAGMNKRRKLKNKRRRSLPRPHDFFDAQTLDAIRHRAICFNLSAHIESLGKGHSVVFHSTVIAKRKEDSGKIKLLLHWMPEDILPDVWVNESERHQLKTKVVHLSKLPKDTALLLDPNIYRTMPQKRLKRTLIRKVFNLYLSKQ

DOT1L = molecular target: T7, DOT1L (Homo sapiens, UniProt Q8TEK3); assay: as above; assay type: biochemical
T7 construct: residues 1-416, N-terminal GST fusion, E. coli
T7 sequence (Q8TEK3 1-416): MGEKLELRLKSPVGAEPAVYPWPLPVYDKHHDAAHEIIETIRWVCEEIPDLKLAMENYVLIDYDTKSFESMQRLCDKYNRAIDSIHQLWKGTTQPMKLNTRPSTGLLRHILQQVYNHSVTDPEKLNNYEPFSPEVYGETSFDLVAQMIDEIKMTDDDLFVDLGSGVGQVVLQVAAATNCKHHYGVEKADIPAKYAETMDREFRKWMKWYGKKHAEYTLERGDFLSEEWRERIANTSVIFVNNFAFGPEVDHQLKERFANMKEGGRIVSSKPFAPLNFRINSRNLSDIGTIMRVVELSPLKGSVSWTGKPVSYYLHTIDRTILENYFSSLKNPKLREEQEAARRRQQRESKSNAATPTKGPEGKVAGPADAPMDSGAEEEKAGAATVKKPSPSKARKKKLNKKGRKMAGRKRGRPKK

PRMT3 = PRMT3 (Homo sapiens, UniProt O60678); assay: as above; assay type: biochemical; design: residues 2-531, N-terminal His tag, E. coli
Sequence of PRMT3 (O60678 2-531): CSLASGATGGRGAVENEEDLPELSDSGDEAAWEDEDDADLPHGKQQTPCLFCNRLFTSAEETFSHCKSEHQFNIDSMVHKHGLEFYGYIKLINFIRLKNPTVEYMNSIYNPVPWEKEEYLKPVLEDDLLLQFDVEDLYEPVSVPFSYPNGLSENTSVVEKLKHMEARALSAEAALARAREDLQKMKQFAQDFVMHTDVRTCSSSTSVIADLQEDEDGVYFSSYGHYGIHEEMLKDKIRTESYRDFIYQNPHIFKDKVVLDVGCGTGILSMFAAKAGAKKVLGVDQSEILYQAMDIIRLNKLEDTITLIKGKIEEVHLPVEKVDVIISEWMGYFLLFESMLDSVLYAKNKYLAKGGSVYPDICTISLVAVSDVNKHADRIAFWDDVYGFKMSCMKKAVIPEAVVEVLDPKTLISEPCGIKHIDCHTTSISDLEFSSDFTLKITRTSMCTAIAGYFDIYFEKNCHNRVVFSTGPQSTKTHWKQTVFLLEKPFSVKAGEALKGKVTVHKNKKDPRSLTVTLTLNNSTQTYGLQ

SET1b Complex = SET1b Complex (Homo sapiens, UniProt Q9UPS6); assay: as above; assay type: biochemical; design: gene SETD1B; complex assembled as MLL1; SET1B N-terminal GST tag, E. coli; with WD repeat-containing protein 5; Set1/Ash2 histone methyltransferase complex subunit ASH2; Protein dpy-30 homolog
[1] = read-out: DA3003-1 IC50, inhibitor
[2] = histone H4, […] SAM, pH […] MgCl2, […] DTT, […] °C, single experiment

- Kd (NSD2 SET domain): 370 nM
- IC50 (SMYD1; [1]): 1 µM
- IC50 (PRMT5; [1]): 0.65 µM
- IC50 (SET7/9; [1]): 1.4 µM
- IC50 (DNMT3b/3L; [1]): 0.72 µM
SMILES: O=C1C(Cl)=C(NCCN2CCOCC2)C(=O)c2ncccc21 [DA3003-1]

- IC50 (PRMT1): 83 µM
- IC50 (PRMT8): 34 µM
- IC50 (EZH1 Complex): 66 µM
- IC50 (DOT1L): 2 µM
- koff (NSD2 SET domain): 0.0364 s⁻¹
- kon (NSD2 SET domain): 4390 M⁻¹ s⁻¹
- IC50 (PRMT3): 36 µM
- IC50 (SET1b Complex): 7.1 µM
SMILES: CC1(C)CCC(CN2CCN(c3ccc(C(=O)NS(=O)(=O)c4ccc(NCC5CCOCC5)c([N+](=O)[O-])c4)c(Oc4cnc5[nH]ccc5c4)c3)CC2)=C(c2ccc(Cl)cc2)C1 [ABT-199]

- IC50 (PRMT1; [2]): 68 µM
- IC50 (PRMT8; [2]): 71 µM
- IC50 (EZH1 Complex; core histone, […] SAM, pH […] EDTA, […] DTT, […] °C, single experiment): 40 µM
- IC50 (DOT1L; nucleosomes, […] SAM, pH […] MgCl2, […] DTT, […] °C, single experiment): 8.2 µM
- IC50 (SMYD1): 21 µM
- IC50 (PRMT5): 17 µM
- IC50 (SET7/9): 52 µM
- IC50 (DNMT3b/3L): 30 µM
- IC50 (PRMT3; [2]): 5.7 µM
- IC50 (SET1b Complex; core histone, […] SAM, pH […] MgCl2, […] DTT, […] °C, single experiment): 8 µM
SMILES: COc1cccc(-n2nc(C(=O)O)cc2-c2ccc(C3CCCCC3)c(Cl)c2)c1 [TC LPA5 4]
